Literature values as cited in patent US20250332126A1, “TOPICAL COMPOSITION FOR PAIN RELIEF” (JOHNSON & JOHNSON CONSUMER INC., priority 2022, published 2025).

settings: at 20° C.

| vapor pressure [kPa] | Structure (SMILES) |
| --- | --- |
| 5.95 | CCO [ethanol] |
| 4.40 | CC(C)O [isopropanol] |
| 11.9 | CO [methanol] |
